Source: the supplement of paper PMC10307832

Compound: COc1cccc2c1C(=O)c1c(O)c3c(c(O)c1C2=O)C[C@@](O)(C(=O)CO)C[C@@H]3O[C@H]1C[C@H](N)[C@H](O)[C@H](C)O1 [Doxorubicin] + Cc1cc(Nc2cc(N3CCN(C)CC3)nc(Sc3ccc(NC(=O)C4CC4)cc3)n2)n[nH]1 [Tozasertib] (partner 0.1 µM)
Experiment: relative viability (nuclei count vs DMSO), 5 days (fraction); higher = more cells survive
Settings: first compound 0.001 µM
How it was run: (§1)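 Lung cancer cell lines were seeded in 1536-well plates and dosed by pin tool the next day, with either a single drug or a fixed anchor-drug dose combined with five library-drug doses (not always all listed) spaced in √10 steps. Five days later, one step fixed the cells and stained their nuclei (final 0.05% Triton X-100, 1% formaldehyde, 1 ug/ml Hoechst), and nuclei were counted on 4× images. Relative viability is the nuclei count in treated wells divided by the count in vehicle wells, and each value is the median of duplicate plates.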

Point of comparison: ABC-1, relative viability 0.223. Against it:
- LCLC-103H — higher, 0.531
- NCI-H1650 — higher, 0.411
- NCI-H2170 — higher, 0.741
- NCI-H1993 — higher, 0.593
- SK-MES-1 — higher, 0.856
- PC-14 — higher, 0.598

Same assay, conditions: first compound 0.003162 µM

Point of comparison: SK-MES-1, relative viability 0.867. Against it:
- LCLC-103H — lower, 0.411
- NCI-H1650 — lower, 0.32
- NCI-H2170 — lower, 0.711
- NCI-H1993 — lower, 0.657
- NCI-H23 — lower, 0.452
- ABC-1 — lower, 0.207
- PC-14 — lower, 0.573

Same assay, conditions: first compound 0.01 µM

Point of comparison: SK-MES-1, relative viability 0.583. Against it:
- LCLC-103H — lower, 0.465
- NCI-H1650 — lower, 0.261
- NCI-H2170 — higher, 0.651
- NCI-H1993 — lower, 0.555
- NCI-H23 — lower, 0.362
- ABC-1 — lower, 0.153
- PC-14 — higher, 0.599

Same assay, conditions: first compound 0.03162 µM

Point of comparison: NCI-H23, relative viability 0.389. Against it:
- LCLC-103H — higher, 0.414
- NCI-H1650 — lower, 0.207
- NCI-H2170 — higher, 0.581
- NCI-H1993 — higher, 0.58
- ABC-1 — lower, 0.184
- SK-MES-1 — lower, 0.211
- PC-14 — higher, 0.59

Same assay, conditions: first compound 0.1 µM

Point of comparison: NCI-H1650, relative viability 0.111. Against it:
- LCLC-103H — higher, 0.529
- NCI-H2170 — higher, 0.701
- NCI-H1993 — higher, 0.591
- NCI-H23 — higher, 0.397
- ABC-1 — higher, 0.181
- SK-MES-1 — higher, 0.162
- PC-14 — higher, 0.487

Compound: COC1=C(C=C(C=C1)C2=CC3=NC=CN3C(=N2)NC4=C(C=CC=N4)C(=O)N)OC [BAY61-3606] + CCNC(=O)c1noc(-c2cc(C(C)C)c(O)cc2O)c1-c1ccc(CN2CCOCC2)cc1 [Luminespib] (partner 0.01 µM)
Experiment: as above
Settings: first compound 0.02 µM
How it was run: as §1

Point of comparison: LCLC-103H, relative viability 0.989. Against it:
- NCI-H1650 — lower, 0.182
- NCI-H2170 — lower, 0.796
- NCI-H1993 — lower, 0.947
- NCI-H23 — lower, 0.212
- ABC-1 — lower, 0.985
- SK-MES-1 — lower, 0.862
- PC-14 — lower, 0.191

Same assay, conditions: first compound 0.06325 µM

Point of comparison: SK-MES-1, relative viability 0.759. Against it:
- LCLC-103H — higher, 1.06
- NCI-H1650 — lower, 0.184
- NCI-H2170 — lower, 0.717
- NCI-H1993 — lower, 0.736
- NCI-H23 — lower, 0.213
- ABC-1 — lower, 0.549

Same assay, conditions: first compound 0.2 µM

Point of comparison: NCI-H2170, relative viability 0.761. Against it:
- LCLC-103H — higher, 0.969
- NCI-H1650 — lower, 0.191
- NCI-H1993 — higher, 0.873
- NCI-H23 — lower, 0.214
- ABC-1 — lower, 0.529
- SK-MES-1 — higher, 0.791
- PC-14 — lower, 0.171

Same assay, conditions: first compound 0.6325 µM

Point of comparison: ABC-1, relative viability 0.81. Against it:
- LCLC-103H — higher, 1.06
- NCI-H1650 — lower, 0.203
- NCI-H2170 — higher, 0.852
- NCI-H1993 — higher, 0.901
- NCI-H23 — lower, 0.232
- SK-MES-1 — lower, 0.805
- PC-14 — lower, 0.173

Same assay, conditions: first compound 2 µM

Point of comparison: NCI-H1993, relative viability 0.527. Against it:
- LCLC-103H — higher, 0.737
- NCI-H1650 — lower, 0.208
- NCI-H2170 — lower, 0.506
- NCI-H23 — lower, 0.207
- ABC-1 — lower, 0.338
- SK-MES-1 — lower, 0.304
- PC-14 — lower, 0.129

Compound: COC1=C(C=C(C=C1)C2=CC3=NC=CN3C(=N2)NC4=C(C=CC=N4)C(=O)N)OC [BAY61-3606] + O=C(CCCCCCC(=O)Nc1ccccc1)NO [Vorinostat] (partner 1 µM)
Experiment: as above
Settings: first compound 0.02 µM
How it was run: as §1

Point of comparison: NCI-H2170, relative viability 0.835. Against it:
- LCLC-103H — lower, 0.782
- NCI-H1650 — lower, 0.611
- NCI-H1993 — higher, 1.06
- NCI-H23 — lower, 0.542
- ABC-1 — higher, 1.41
- SK-MES-1 — higher, 1.14
- PC-14 — lower, 0.808

Same assay, conditions: first compound 0.06325 µM

Point of comparison: SK-MES-1, relative viability 1.13. Against it:
- LCLC-103H — lower, 0.716
- NCI-H1650 — lower, 0.551
- NCI-H2170 — lower, 0.752
- NCI-H1993 — lower, 0.718
- NCI-H23 — lower, 0.701
- ABC-1 — lower, 1.08
- PC-14 — lower, 0.799

Same assay, conditions: first compound 0.2 µM

Point of comparison: NCI-H1993, relative viability 0.756. Against it:
- LCLC-103H — lower, 0.724
- NCI-H1650 — lower, 0.5
- NCI-H2170 — higher, 0.842
- NCI-H23 — lower, 0.53
- ABC-1 — higher, 1.3
- SK-MES-1 — higher, 1.05
- PC-14 — higher, 0.845

Same assay, conditions: first compound 0.6325 µM

Point of comparison: PC-14, relative viability 0.87. Against it:
- LCLC-103H — lower, 0.791
- NCI-H1650 — lower, 0.665
- NCI-H2170 — lower, 0.83
- NCI-H1993 — lower, 0.0488
- NCI-H23 — lower, 0.553
- ABC-1 — higher, 1.3
- SK-MES-1 — higher, 1.11

Same assay, conditions: first compound 2 µM

Point of comparison: NCI-H23, relative viability 0.501. Against it:
- LCLC-103H — higher, 0.789
- NCI-H1650 — higher, 0.61
- NCI-H2170 — higher, 0.739
- NCI-H1993 — higher, 0.67
- ABC-1 — higher, 1.28
- SK-MES-1 — higher, 0.86
- PC-14 — higher, 0.667

Compound: COC1=C(C=C(C=C1)C2=CC3=NC=CN3C(=N2)NC4=C(C=CC=N4)C(=O)N)OC [BAY61-3606] + Cc1nc(Nc2ncc(C(=O)Nc3c(C)cccc3Cl)s2)cc(N2CCN(CCO)CC2)n1 [Dasatinib] (partner 0.075 µM)
Experiment: as above
Settings: first compound 0.02 µM
How it was run: as §1

Point of comparison: NCI-H23, relative viability 0.801. Against it:
- LCLC-103H — lower, 0.537
- NCI-H1650 — lower, 0.304
- NCI-H2170 — lower, 0.64
- NCI-H1993 — lower, 0.581
- ABC-1 — lower, 0.658
- SK-MES-1 — lower, 0.379
- PC-14 — lower, 0.269

Same assay, conditions: first compound 0.06325 µM

Point of comparison: NCI-H23, relative viability 0.713. Against it:
- LCLC-103H — lower, 0.407
- NCI-H1650 — lower, 0.261
- NCI-H2170 — lower, 0.508
- NCI-H1993 — lower, 0.56
- ABC-1 — lower, 0.653
- SK-MES-1 — lower, 0.302
- PC-14 — lower, 0.249

Same assay, conditions: first compound 0.2 µM

Point of comparison: ABC-1, relative viability 0.557. Against it:
- LCLC-103H — lower, 0.465
- NCI-H1650 — lower, 0.3
- NCI-H2170 — lower, 0.539
- NCI-H1993 — higher, 0.566
- NCI-H23 — higher, 0.645
- SK-MES-1 — lower, 0.357
- PC-14 — lower, 0.264

Same assay, conditions: first compound 0.6325 µM

Point of comparison: PC-14, relative viability 0.287. Against it:
- LCLC-103H — higher, 0.55
- NCI-H1650 — higher, 0.296
- NCI-H2170 — higher, 0.465
- NCI-H1993 — higher, 0.521
- NCI-H23 — higher, 0.606
- ABC-1 — higher, 0.553
- SK-MES-1 — higher, 0.339

Same assay, conditions: first compound 2 µM

Point of comparison: NCI-H1993, relative viability 0.491. Against it:
- LCLC-103H — lower, 0.446
- NCI-H1650 — lower, 0.245
- NCI-H2170 — lower, 0.352
- NCI-H23 — higher, 0.677
- ABC-1 — lower, 0.476
- SK-MES-1 — lower, 0.23
- PC-14 — lower, 0.176
